In patent publication US7728003B2, “5-oxo-5,8-dihydro-pyrido-pyrimidines as inhibitors of c-fms kinase” (Janssen Pharmaceutica N.V., priority 2005, dated 2010):

Target: c-fms (Homo sapiens, UniProt P07333)
Experiment: c-fms autophosphorylation, fluorescence polarization competition immunoassay
Assay type: biochemical
Settings: 10 nM c-fms, 1 mM ATP; for inhibition at 0.1 µM: test concentration 0.1 μM, read-out: c-fms Autophosphorylation Percent Inhibition, % @ 0.1 μM; for inhibition at 1 µM: test concentration 1 μM, read-out: c-fms Autophosphorylation Percent Inhibition, % @ 1 μM; for IC50: average of three independent measurements
Experimental: The assay buffer used was 100 mM 4-(2-hydroxyethyl)piperazine 1-ethanesulfonic acid (HEPES), pH 7.5, 1 mM 1,4-dithio-DL-threitol (DTT), 0.01% (v/v) Tween-20. Compounds were diluted in assay buffer containing 4% dimethylsulfoxide (DMSO) just prior to the assay. To each well, 5 μL of compound were added followed by the addition of 3 μL of a mix containing 33 nM c-fms and 16.7 mM MgCl2 (Sigma) in assay buffer. The kinase reaction was initiated by adding 2 μL of 5 mM ATP (Sigma) in assay buffer. The final concentrations in the assay were 10 nM c-fms, 1 mM ATP, 5 mM MgCl2, 2% DMSO. Control reactions were ran in each plate: in positive and negative control wells, assay buffer (made 4% in DMSO) was substituted for the compound; in addition, positive control wells received 1.2 μL of 50 mM ethylenediaminetetraaceticacid (EDTA).
The plates were incubated at room temperature for 45 min. At the end of the incubation, the reaction was quenched with 1.2 μL of 50 mM EDTA (EDTA was not added to the positive control wells at this point; see above). Following a 5-min incubation, each well received 10 μL of a 1:1:3 mixture of anti-phosphotyrosine antibody, 10X, PTK green tracer, 10X (vortexed), FP dilution buffer, respectively (all from PanVera, cat. # P2837). The plate was covered, incubated for 30 min at room temperature and the fluorescence polarization was read on the Analyst. The instrument settings were: 485 nm excitation filter; 530 nm emission filter; Z height: middle of well; G factor: 0.93.
The percent inhibition is shown in Table 1 at the indicated test concentration. The IC50 shown in Table 2 are averages of three independent measurements.

Sequence of c-fms (P07333 20-972): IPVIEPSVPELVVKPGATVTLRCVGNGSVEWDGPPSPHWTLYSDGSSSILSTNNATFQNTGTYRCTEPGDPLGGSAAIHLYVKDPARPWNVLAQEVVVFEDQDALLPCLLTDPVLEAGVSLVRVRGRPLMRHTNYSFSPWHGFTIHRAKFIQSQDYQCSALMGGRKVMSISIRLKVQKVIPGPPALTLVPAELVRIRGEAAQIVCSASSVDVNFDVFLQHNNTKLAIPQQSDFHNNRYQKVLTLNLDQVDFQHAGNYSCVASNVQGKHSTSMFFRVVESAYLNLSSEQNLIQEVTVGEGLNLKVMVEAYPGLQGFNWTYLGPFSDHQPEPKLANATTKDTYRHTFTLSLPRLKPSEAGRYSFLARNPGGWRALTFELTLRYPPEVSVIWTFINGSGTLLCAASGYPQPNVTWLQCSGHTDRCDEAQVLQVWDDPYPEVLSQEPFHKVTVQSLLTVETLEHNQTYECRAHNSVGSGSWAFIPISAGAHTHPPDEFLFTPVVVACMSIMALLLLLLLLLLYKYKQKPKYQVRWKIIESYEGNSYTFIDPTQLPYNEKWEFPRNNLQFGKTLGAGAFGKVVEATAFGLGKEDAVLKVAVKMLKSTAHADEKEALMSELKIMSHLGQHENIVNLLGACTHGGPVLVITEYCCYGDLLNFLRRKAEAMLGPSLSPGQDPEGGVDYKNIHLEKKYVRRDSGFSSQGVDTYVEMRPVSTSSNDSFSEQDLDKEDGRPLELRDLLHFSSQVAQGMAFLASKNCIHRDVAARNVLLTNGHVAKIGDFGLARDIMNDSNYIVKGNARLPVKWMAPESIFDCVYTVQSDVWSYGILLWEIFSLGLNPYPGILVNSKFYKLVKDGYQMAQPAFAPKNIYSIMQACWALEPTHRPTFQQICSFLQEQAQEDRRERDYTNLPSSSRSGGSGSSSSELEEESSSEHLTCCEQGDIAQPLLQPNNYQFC

Compound	inhibition at 0.1 µM [%]	inhibition at 1 µM [%]	IC50 [µM]
CONC(=O)c1cn(C2CCCCC2)c2nc(NCCN3CCOCC3)ncc2c1=O [Cpd 51, 8-Cyclohexyl-2-(2-morpholin-4-yl-ethylamino)-5-oxo-5,8-dihydro-pyrido[2,3-d]pyrimidine-6-carboxylic acid methoxy-amide]	17	44	
CONC(=O)c1cn(C2CCCCC2)c2nc(NCCCN3CCN(C)CC3)ncc2c1=O [Cpd 45, 8-Cyclohexyl-2-[3-(4-methyl-piperazin-1-yl)-propylamino]-5-oxo-5,8-dihydro-pyrido[2,3-d]pyrimidine-6-carboxylic acid methoxy-amide]	43	67	
NC(=O)c1cn(C2CCCCC2)c2nc(NCCCn3ccnc3)ncc2c1=O [Cpd 28, 8-Cyclohexyl-2-(3-imidazol-1-yl-propylamino)-5-oxo-5,8-dihydro-pyrido[2,3-d]pyrimidine-6-carboxylic acid amide]	31	69	
CNC(=O)c1cn(C2CCCCC2)c2nc(NCCN3CCOCC3)ncc2c1=O [Cpd 60, 8-Cyclohexyl-2-(2-morpholin-4-yl-ethylamino)-5-oxo-5,8-dihydro-pyrido[2,3-d]pyrimidine-6-carboxylic acid methylamide]	12	18	
COCCCNc1ncc2c(=O)c(C(=O)NOC)cn(-c3ccc4c(c3)CCC4)c2n1 [Cpd 21, 8-Indan-5-yl-2-(3-methoxy-propylamino)-5-oxo-5,8-dihydro-pyrido[2,3-d]pyrimidine-6-carboxylic acid methoxy-amide]	50	82	
CONC(=O)c1cn(C2CCCCC2)c2nc(NCCCn3ccnc3)ncc2c1=O [Cpd 41, 8-Cyclohexyl-2-(3-imidazol-1-yl-propylamino)-5-oxo-5,8-dihydro-pyrido[2,3-d]pyrimidine-6-carboxylic acid methoxy-amide]	22	45	
CNC(=O)c1cn(C2CCCCC2)c2nc(NCCc3ccc(OC)cc3)ncc2c1=O [Cpd 58, 8-Cyclohexyl-2-[2-(4-methoxy-phenyl)-ethylamino]-5-oxo-5,8-dihydro-pyrido[2,3-d]pyrimidine-6-carboxylic acid methylamide]	13	26	
NC(=O)c1cn(C2CCCCC2)c2nc(NCCN3CCCC3)ncc2c1=O [Cpd 36, 8-Cyclohexyl-5-oxo-2-(2-pyrrolidin-1-yl-ethylamino)-5,8-dihydro-pyrido[2,3-d]pyrimidine-6-carboxylic acid amide]	5	49	
CNC(=O)c1cn(C2CCCCC2)c2nc(NCCN3CCCCC3)ncc2c1=O [Cpd 59, 8-Cyclohexyl-5-oxo-2-(2-piperidin-1-yl-ethylamino)-5,8-dihydro-pyrido[2,3-d]pyrimidine-6-carboxylic acid methylamide]	5	11	
CONC(=O)c1cn(-c2ccc3c(c2)CCC3)c2nc(NCc3cc(OC)cc(OC)c3)ncc2c1=O [Cpd 27, 2-(3,5-Dimethoxy-benzylamino)-8-indan-5-yl-5-oxo-5,8-dihydro-pyrido[2,3-d]pyrimidine-6-carboxylic acid methoxy-amide]	15	41	
NC(=O)c1cn(-c2ccc3c(c2)CCC3)c2nc(NCCN3CCCCC3)ncc2c1=O [Cpd 2, 8-Indan-5-yl-5-oxo-2-(2-piperidin-1-yl-ethylamino)-5,8-dihydro-pyrido[2,3-d]pyrimidine-6-carboxylic acid amide]	15	20	
CNC(=O)c1cn(C2CCCCC2)c2nc(NCCCN3CCOCC3)ncc2c1=O [Cpd 55, 8-Cyclohexyl-2-(3-morpholin-4-yl-propylamino)-5-oxo-5,8-dihydro-pyrido[2,3-d]pyrimidine-6-carboxylic acid methylamide]	13	23	
NC(=O)c1cn(-c2ccc3c(c2)CCC3)c2nc(NCCCn3ccnc3)ncc2c1=O [Cpd 3, 2-(3-Imidazol-1-yl-propylamino)-8-indan-5-yl-5-oxo-5,8-dihydro-pyrido[2,3-d]pyrimidine-6-carboxylic acid amide]			2.3
CN1CCN(CCCNc2ncc3c(=O)c(C(N)=O)cn(C4CCCCC4)c3n2)CC1 [Cpd 33, 8-Cyclohexyl-2-[3-(4-methyl-piperazin-1-yl)-propylamino]-5-oxo-5,8-dihydro-pyrido[2,3-d]pyrimidine-6-carboxylic acid amide]	31	70	

Further lines, results first:

inhibition at 0.1 µM [%]	inhibition at 1 µM [%]	IC50 [µM]	Compound
36	70		CONC(=O)c1cn(-c2ccc3c(c2)CCC3)c2nc(NCCCn3ccnc3)ncc2c1=O [Cpd 19, 2-(3-Imidazol-1-yl-propylamino)-8-indan-5-yl-5-oxo-5,8-dihydro-pyrido[2,3-d]pyrimidine-6-carboxylic acid methoxy-amide]
31	64		NC(=O)c1cn(C2CCCCC2)c2nc(NCCCN3CCCC3)ncc2c1=O [Cpd 34, 8-Cyclohexyl-5-oxo-2-(3-pyrrolidin-1-yl-propylamino)-5,8-dihydro-pyrido[2,3-d]pyrimidine-6-carboxylic acid amide]
		7.1	CN(C)CCCNc1ncc2c(=O)c(C(N)=O)cn(-c3ccc4c(c3)CCC4)c2n1 [Cpd 6, 2-(3-Dimethylamino-propylamino)-8-indan-5-yl-5-oxo-5,8-dihydro-pyrido[2,3-d]pyrimidine-6-carboxylic acid amide]
24	68		NC(=O)c1cn(C2CCCCC2)c2nc(NCCCN3CCOCC3)ncc2c1=O [Cpd 30, 8-Cyclohexyl-2-(3-morpholin-4-yl-propylamino)-5-oxo-5,8-dihydro-pyrido[2,3-d]pyrimidine-6-carboxylic acid amide]
24	69.1		CN1CCN(CCCNc2ncc3c(=O)c(C(N)=O)cn(-c4ccc5c(c4)CCC5)c3n2)CC1 [Cpd 1, 8-Indan-5-yl-2-[4-(4-methyl-piperazin-1-yl)-propylamino]-5-oxo-5,8-dihydro-pyrido[2,3-d]pyrimidine-6-carboxylic acid amide]
38	68		CONC(=O)c1cn(C2CCCCC2)c2nc(NCCc3ccc(OC)cc3)ncc2c1=O [Cpd 49, 8-Cyclohexyl-2-[2-(4-methoxy-phenyl)-ethylamino]-5-oxo-5,8-dihydro-pyrido[2,3-d]pyrimidine-6-carboxylic acid methoxy-amide]
26	62		COCCCNc1ncc2c(=O)c(C(=O)NOC)cn(C3CCCCC3)c2n1 [Cpd 44, 8-Cyclohexyl-2-(3-methoxy-propylamino)-5-oxo-5,8-dihydro-pyrido[2,3-d]pyrimidine-6-carboxylic acid methoxy-amide]
31	57		COCCNc1ncc2c(=O)c(C(=O)NOC)cn(C3CCCCC3)c2n1 [Cpd 47, 8-Cyclohexyl-2-(2-methoxy-ethylamino)-5-oxo-5,8-dihydro-pyrido[2,3-d]pyrimidine-6-carboxylic acid methoxy-amide]
6	30		CONC(=O)c1cn(-c2ccc3c(c2)CCC3)c2nc(NCCN3CCCCC3)ncc2c1=O [Cpd 25, 8-Indan-5-yl-5-oxo-2-(2-piperidin-1-yl-ethylamino)-5,8-dihydro-pyrido[2,3-d]pyrimidine-6-carboxylic acid methoxy-amide]
21	59		NC(=O)c1cn(C2CCCCC2)c2nc(NCCN3CCOCC3)ncc2c1=O [Cpd 39, 8-Cyclohexyl-2-(2-morpholin-4-yl-ethylamino)-5-oxo-5,8-dihydro-pyrido[2,3-d]pyrimidine-6-carboxylic acid amide]
25	62		COCCCNc1ncc2c(=O)c(C(N)=O)cn(C3CCCCC3)c2n1 [Cpd 31, 8-Cyclohexyl-2-(3-methoxy-propylamino)-5-oxo-5,8-dihydro-pyrido[2,3-d]pyrimidine-6-carboxylic acid amide]
29	41		COc1ccc(CCNc2ncc3c(=O)c(C(N)=O)cn(C4CCCCC4)c3n2)cc1 [Cpd 37, 8-Cyclohexyl-2-[2-(4-methoxy-phenyl)-ethylamino]-5-oxo-5,8-dihydro-pyrido[2,3-d]pyrimidine-6-carboxylic acid amide]
10	21		CNC(=O)c1cn(C2CCCCC2)c2nc(NCCCn3ccnc3)ncc2c1=O [Cpd 53, 8-Cyclohexyl-2-(3-imidazol-1-yl-propylamino)-5-oxo-5,8-dihydro-pyrido[2,3-d]pyrimidine-6-carboxylic acid methylamide]
